According to paper PMC10935503 (Acta Pharmaceutica Sinica. B, 2023):
In brackets after ≈: the same amount, converted by molar mass.

Columns and labels:
hERG channel = hERG channel (Homo sapiens, UniProt Q12809); test: hERG channel inhibition assay, manual patch-clamp in HEK293 cells; type: cell-based; settings: HEK293 cells stably transfected with hERG cDNA
HIV-1 L100I = test: microbe, parasite or virus in culture; type: cell-based
HIV-1 Y188L = test: microbe, parasite or virus in culture; type: cell-based
HIV-1 E138K = test: microbe, parasite or virus in culture; type: cell-based
CYP2C9 = CYP2C9 (Homo sapiens, UniProt P11712); test: Cytochrome P450 inhibition assay, CYP2C9; type: in vitro ADME
HIV-1 Y181C = test: microbe, parasite or virus in culture; type: cell-based
HIV-1 RT = HIV-1 RT (Human immunodeficiency virus type 1 group M subtype B, UniProt P03366); test: HIV-1 RT inhibition assay; type: biochemical
CYP1A2 = target: T1, CYP1A2 (Homo sapiens, UniProt P05177); test: Cytochrome P450 inhibition assay, CYP1A2
T1 sequence (P05177 1-516): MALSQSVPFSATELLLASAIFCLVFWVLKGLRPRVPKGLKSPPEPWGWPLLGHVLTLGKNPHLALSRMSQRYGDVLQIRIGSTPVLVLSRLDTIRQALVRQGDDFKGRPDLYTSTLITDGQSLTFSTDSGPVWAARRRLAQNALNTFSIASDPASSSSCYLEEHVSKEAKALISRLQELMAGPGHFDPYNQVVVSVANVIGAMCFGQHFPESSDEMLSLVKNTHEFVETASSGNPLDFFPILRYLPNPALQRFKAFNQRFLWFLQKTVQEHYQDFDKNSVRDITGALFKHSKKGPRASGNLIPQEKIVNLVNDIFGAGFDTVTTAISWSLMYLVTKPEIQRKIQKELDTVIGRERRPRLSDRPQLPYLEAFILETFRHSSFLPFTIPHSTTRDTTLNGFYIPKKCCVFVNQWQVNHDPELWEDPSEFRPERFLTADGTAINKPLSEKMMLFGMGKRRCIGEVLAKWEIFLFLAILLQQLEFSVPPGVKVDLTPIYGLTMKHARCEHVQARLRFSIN

HIV-1 K103N = test: microbe, parasite or virus in culture; type: cell-based
CYP2C19 = CYP2C19 (Homo sapiens, UniProt P33261); test: Cytochrome P450 inhibition assay, CYP2C19; type: in vitro ADME
[1] = tested on: main CYP enzymes (CYP1A2, CYP2C9, CYP2C19, CYP2D6, CYP3A4; range over isoforms); test: Cytochrome P450 inhibition assay, summary over isoforms; type: in vitro ADME; settings: human, human liver microsomes
CYP3A4 = CYP3A4 (Homo sapiens, UniProt P08684); test: Cytochrome P450 inhibition assay, CYP3A4
CYP2D6 = CYP2D6 (Homo sapiens, UniProt P10635); test: biochemical
[2] = Cytotoxicity in mock-infected MT-4 cells, MTT method; type: cell-based; settings: human
HIV-1 WT strain (IIIB) = test: Anti-HIV-1 activity in MT-4 cells, MTT method, WT strain IIIB; type: cell-based; settings: Human immunodeficiency virus 1, IIIB, MT4, read-out: EC50 IIIB
HIV-1 F227L + V106A = test: microbe, parasite or virus in culture; type: cell-based
[3] = In vivo pharmacokinetics in SD rats; parameters: species or system Sprague–Dawley (SD) rats
[4] = Single-dose acute toxicity in mice; type: in vivo; settings: Kunming mice, single intragastric dose 2000 mg/kg, 7 days observation
[5] = tested on: HIV-1 K103N + Y181C (RES056); test: microbe, parasite or virus in culture; type: cell-based
[6] = resistance fold, EC50 (mutant strain)/EC50 (WT strain)
[7] = selectivity index, ratio of CC50/EC50
[8] = Sprague-Dawley, rat, plasma, iv, 2 mg/kg
[9] = Sprague-Dawley, rat, plasma, po, 20 mg/kg

CYP2C19, sequence (P33261 whole entry, canonical isoform): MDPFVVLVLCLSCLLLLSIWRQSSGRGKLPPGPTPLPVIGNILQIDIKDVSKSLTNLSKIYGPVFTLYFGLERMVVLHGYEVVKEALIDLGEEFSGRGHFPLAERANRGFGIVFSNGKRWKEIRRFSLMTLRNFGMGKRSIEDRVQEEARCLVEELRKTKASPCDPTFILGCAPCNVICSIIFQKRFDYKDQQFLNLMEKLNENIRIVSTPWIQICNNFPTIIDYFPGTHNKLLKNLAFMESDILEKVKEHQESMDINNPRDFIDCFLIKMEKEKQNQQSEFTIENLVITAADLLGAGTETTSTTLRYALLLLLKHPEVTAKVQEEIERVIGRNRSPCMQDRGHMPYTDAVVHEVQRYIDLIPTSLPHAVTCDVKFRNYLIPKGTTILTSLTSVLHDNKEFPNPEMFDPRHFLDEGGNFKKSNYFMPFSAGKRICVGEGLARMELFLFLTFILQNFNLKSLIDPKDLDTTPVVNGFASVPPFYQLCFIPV
CYP3A4, sequence (P08684 whole entry): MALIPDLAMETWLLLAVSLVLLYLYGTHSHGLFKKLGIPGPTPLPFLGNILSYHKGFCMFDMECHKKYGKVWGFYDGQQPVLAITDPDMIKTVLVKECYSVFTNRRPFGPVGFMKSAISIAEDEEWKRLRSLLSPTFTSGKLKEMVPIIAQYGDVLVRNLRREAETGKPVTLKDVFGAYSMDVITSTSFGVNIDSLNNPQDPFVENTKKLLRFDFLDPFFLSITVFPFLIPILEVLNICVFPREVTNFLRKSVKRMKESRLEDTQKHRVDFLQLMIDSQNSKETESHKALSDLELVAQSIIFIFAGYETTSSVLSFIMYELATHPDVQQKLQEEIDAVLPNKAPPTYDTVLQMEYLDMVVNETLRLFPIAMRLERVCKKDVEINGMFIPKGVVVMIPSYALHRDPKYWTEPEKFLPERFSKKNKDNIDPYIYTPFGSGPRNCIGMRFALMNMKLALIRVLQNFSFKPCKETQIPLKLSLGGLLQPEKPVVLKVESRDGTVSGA
CYP2C9, sequence (P11712 whole entry): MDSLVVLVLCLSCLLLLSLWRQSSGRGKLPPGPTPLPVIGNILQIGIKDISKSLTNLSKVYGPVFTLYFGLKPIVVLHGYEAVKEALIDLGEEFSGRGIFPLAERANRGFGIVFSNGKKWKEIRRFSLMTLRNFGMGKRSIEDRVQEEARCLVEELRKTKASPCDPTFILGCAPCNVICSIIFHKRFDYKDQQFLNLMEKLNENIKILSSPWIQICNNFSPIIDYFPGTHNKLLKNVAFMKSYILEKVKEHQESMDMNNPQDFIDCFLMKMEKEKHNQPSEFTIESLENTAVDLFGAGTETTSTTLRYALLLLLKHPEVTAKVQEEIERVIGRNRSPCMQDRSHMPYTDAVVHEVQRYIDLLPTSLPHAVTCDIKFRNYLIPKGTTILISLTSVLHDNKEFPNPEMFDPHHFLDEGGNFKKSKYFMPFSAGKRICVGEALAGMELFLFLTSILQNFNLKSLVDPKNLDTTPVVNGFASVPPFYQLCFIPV
CYP2D6, sequence (P10635 whole entry): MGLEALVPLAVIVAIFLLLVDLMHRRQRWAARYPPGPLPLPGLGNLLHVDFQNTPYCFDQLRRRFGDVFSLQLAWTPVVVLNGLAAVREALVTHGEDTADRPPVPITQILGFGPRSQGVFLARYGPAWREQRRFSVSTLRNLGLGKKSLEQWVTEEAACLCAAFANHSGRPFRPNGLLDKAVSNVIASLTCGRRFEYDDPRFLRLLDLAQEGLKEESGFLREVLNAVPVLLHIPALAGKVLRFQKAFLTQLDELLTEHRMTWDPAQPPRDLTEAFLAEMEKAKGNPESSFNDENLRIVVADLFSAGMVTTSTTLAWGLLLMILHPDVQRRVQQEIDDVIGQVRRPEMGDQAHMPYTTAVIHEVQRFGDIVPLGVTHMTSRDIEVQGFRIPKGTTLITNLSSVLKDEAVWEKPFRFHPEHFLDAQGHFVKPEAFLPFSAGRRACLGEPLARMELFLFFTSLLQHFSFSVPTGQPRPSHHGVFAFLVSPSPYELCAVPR
hERG channel, sequence (Q12809 whole entry): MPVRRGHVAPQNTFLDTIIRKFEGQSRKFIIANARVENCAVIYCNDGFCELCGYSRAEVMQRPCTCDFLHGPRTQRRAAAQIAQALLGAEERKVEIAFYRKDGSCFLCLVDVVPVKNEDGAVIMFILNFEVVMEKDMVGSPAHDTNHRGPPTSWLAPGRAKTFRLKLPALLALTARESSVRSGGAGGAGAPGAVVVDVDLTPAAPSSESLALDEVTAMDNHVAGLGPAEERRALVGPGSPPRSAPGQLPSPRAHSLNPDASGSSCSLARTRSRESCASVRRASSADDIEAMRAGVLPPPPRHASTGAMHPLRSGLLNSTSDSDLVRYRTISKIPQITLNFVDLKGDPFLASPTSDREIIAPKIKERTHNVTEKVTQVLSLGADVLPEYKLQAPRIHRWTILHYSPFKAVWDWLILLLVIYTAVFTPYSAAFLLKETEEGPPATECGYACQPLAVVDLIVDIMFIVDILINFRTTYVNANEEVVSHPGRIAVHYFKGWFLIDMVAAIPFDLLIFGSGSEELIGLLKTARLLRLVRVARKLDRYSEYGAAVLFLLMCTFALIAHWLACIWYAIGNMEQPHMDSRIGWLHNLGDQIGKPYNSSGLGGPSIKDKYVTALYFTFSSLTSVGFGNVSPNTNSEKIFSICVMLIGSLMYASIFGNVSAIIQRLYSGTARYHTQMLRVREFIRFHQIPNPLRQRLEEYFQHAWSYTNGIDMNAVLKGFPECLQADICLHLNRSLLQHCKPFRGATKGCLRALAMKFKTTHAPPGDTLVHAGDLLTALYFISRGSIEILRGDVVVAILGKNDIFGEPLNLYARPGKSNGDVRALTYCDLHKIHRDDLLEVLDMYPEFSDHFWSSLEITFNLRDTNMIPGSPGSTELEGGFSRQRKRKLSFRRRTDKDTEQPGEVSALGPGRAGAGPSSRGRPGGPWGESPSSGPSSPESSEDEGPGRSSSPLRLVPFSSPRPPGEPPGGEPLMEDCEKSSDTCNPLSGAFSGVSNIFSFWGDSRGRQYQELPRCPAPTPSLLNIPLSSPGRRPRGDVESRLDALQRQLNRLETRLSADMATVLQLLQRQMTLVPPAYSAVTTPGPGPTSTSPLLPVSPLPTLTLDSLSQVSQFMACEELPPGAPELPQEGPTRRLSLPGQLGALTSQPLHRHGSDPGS

In the case of `Cc1cc(/C=C/C#N)cc(C)c1Oc1nc(NC2CCN(Cc3ccc(S(N)(=O)=O)cc3)CC2)nc2c1SCCC2` [compound 23h, (E)-4-((4-((4-(4-(2-Cyanovinyl)-2,6-dimethylphenoxy)-7,8-dihydro-6H-thiopyrano[3,2-d]pyrimidin-2-yl)amino)piperidin-1-yl)methyl)benzenesulfonamide], the IC50 (hERG channel) is reported as 79 nM, the EC50 (HIV-1 L100I; Human immunodeficiency virus 1, MT4, read-out: EC50 L100I) is reported as 4.46 ± 0.36 nM and the “Times greater activity than ETR, L100I” value (HIV-1 L100I; ratio of EC50 values vs ETR) is reported as 2.0 times. For the same molecule, the “RF L100I” value (HIV-1 L100I; [6]) was 1.3, the “SI L100I” value (HIV-1 L100I; [7]) was 742 and the EC50 (HIV-1 Y188L; Human immunodeficiency virus 1, MT4, read-out: EC50 Y188L) was 16.5 ± 5.18 nM. The “RF Y188L” value (HIV-1 Y188L; [6]) was 4.8, the “SI Y188L” value (HIV-1 Y188L; [7]) was 201 and the EC50 (HIV-1 E138K; Human immunodeficiency virus 1, MT4, read-out: EC50 E138K) was 21.4 ± 4.19 nM. The “RF E138K” value (HIV-1 E138K; [6]) was 6.2, the “SI E138K” value (HIV-1 E138K; [7]) was 155 and the IC50 (CYP2C9) was 3410 nM. It also gave a solubility (physchem; pH 2, aqueous buffer) of 161 µg/mL (≈ 273 µM), a solubility (physchem; pH 7, aqueous buffer) of 11.7 µg/mL (≈ 19.8 µM) and a solubility (physchem; pH 7.4, aqueous buffer) of 3.04 µg/mL (≈ 5.15 µM). For the same molecule, the EC50 (HIV-1 Y181C; Human immunodeficiency virus 1, MT4, read-out: EC50 Y181C) was 8.46 ± 1.17 nM, the “Fold improvement in potency compared to ETR, Y181C” value (HIV-1 Y181C; ratio of EC50 values vs ETR) was 1.7 fold and the “RF Y181C” value (HIV-1 Y181C; [6]) was 2.5. The “SI Y181C” value (HIV-1 Y181C; [7]) was 391, the IC50 (HIV-1 RT) was 529 ± 142 nM and the IC50 (CYP1A2) was over 50000 nM. The EC50 (HIV-1 K103N; Human immunodeficiency virus 1, MT4, read-out: EC50 K103N) was 6.13 ± 0.12 nM, the “RF K103N” value (HIV-1 K103N; [6]) was 1.8 and the “SI K103N” value (HIV-1 K103N; [7]) was 540. It also gave an IC50 (CYP2C19) of 15600 nM, an IC50 at 10 min [1] of 3410 to 50000 nM and an IC50 (CYP3A4) of 13500 nM. It also gave an IC50 (CYP2D6) of 36800 nM, a CC50 at 5 days [2] of 3310 ± 1700 nM and an EC50 (HIV-1 WT strain (IIIB)) of 3.43 ± 2 nM. For the same molecule, the EC50 (HIV-1 F227L + V106A; Human immunodeficiency virus 1, MT4, read-out: EC50 F227L + V106A) was 5.35 ± 0.69 nM, the “Fold better than EFV, F227L + V106A” value (HIV-1 F227L + V106A; ratio of EC50 values vs EFV) was 14.5 fold and the “Fold better than RPV, F227L + V106A” value (HIV-1 F227L + V106A; ratio of EC50 values vs RPV) was 15.3 fold. For the same molecule, the “RF F227L + V106A” value (HIV-1 F227L + V106A; [6]) was 1.6, the “SI F227L + V106A” value (HIV-1 F227L + V106A; [7]) was 619 and the “V (iv)” value ([3]; SD rats, iv 2 mg/kg, mean ± SD, n = 3, 2 mg/kg) was 49.7 L/kg. For the same molecule, the AUC(0-inf) [3, 8] was 1210 ± 78.9 ng·h/mL, the AUC(0-t) [3, 8] was 1150 ± 69.7 ng·h/mL and the MRT inf [3, 8] was 2.03 ± 0.41 h. For the same molecule, the MRT last [3, 8] was 1.56 ± 0.17 h, the clearance [3, 8] was 277 mL/min/kg and the half-life [3, 8] was 2.09 ± 0.39 h. It also gave a bioavailability ([3]; Sprague-Dawley, rat, plasma, oral, 20 mg/kg) of 15.3%, an AUC(0-inf) [3, 9] of 1860 ± 1680 ng·h/mL and an AUC(0-t) [3, 9] of 1680 ± 1480 ng·h/mL. The Cmax [3, 9] was 333 ± 276 ng/mL, the MRT inf [3, 9] was 5.02 ± 0.48 h and the MRT last [3, 9] was 4.1 ± 0.12 h. For the same molecule, the Tmax [3, 9] was 1.5 ± 0.87 h, the half-life [3, 9] was 3 ± 0.74 h and the “Death or signs of intoxication” value [4] was “no death or signs of intoxication”. For the same molecule, the EC50 ([5]; Human immunodeficiency virus 1, MT4, read-out: EC50 RES056) was 15.2 ± 9.44 nM, the “Fold greater potency than EFV, RES056” value ([5]; ratio of EC50 values vs EFV) was 7.5 fold and the “Fold greater potency than ETR, RES056” value ([5]; ratio of EC50 values vs ETR) was 2.3 fold. The “RF RES056” value [5, 6] was 4.4 and the “SI RES056” value [5, 7] was 218.
